Laboratory results reported in patent US20150259371A1, “METHODS AND COMPOUNDS FOR INHIBITING GLYCOSYLTRANSFERASES” (SIMON FRASER UNIVERSITY, priority 2010, published 2015).

Assays:
[1] = test system: O-GlcNAc levels in mice tissues; assay: O-GlcNAc levels in mouse tissues after intraperitoneal dosing; format: in vivo; conditions: 300 mg/kg intraperitoneally, 16 hours
Protocol: Ac-5SGlcNAc 9 and the deprotected analogue with the hexyl substituent at the C2 position 28 have been analyzed for effectiveness at decreasing O-GlcNAc levels in mice. Pilot studies were conducted with mice dosed in triplicate with either compound or vehicle alone. Compounds were dosed at 300 mg/kg intraperitoneally using 75% DMSO as vehicle for delivery of 9 and phosphate-buffered saline (PBS) for delivery of 28. Mice were euthanized using a CO2 chamber after 16 hours exposure to either compound, and tissues (liver, lung, heart, kidney, spleen, pancreas, brain, blood, fat and muscle) harvested and flash frozen in liquid nitrogen. Frozen tissues were ground using a pestle and mortar, and resuspended in cell lysis buffer (50 mM NaH2PO4, 150 mM NaCl, 0.1% SDS, 1% NP-40, 0.25% sodium deoxycholate, 1 mM EDTA, 30 mM sodium fluoride, 30 mM β-glycerophosphate, 5 mM sodium pyrophosphate, 1 mM Thiamet-G, protease inhibitor cocktail (Roche)) at a concentration of 100 mg tissue1 mL buffer prior to homogenization. Homogenates were centrifuged at 13,000 rpm for 20 min, the supernatant removed, added to 2×SDS-PAGE loading buffer and boiled for […]. SDS-PAGE and western blots were performed using standard procedures. Blots were probed using anti-O-GlcNAc antibody (CTD110.6, Santa Cruz Biotechnology) and anti-actin antibody for a loading control.

[2] = test system: O-GlcNAc levels in COS-7 cells; assay: Western blot of O-GlcNAc levels (CTD110.6) in treated COS-7 cells; format: cell-based, African green monkey; conditions: 50 μM, 24 h
Protocol: Cell culture: Cells were grown in an incubator at 37° C. and 5% CO2 atmosphere. Media and serum were purchased from Invitrogen. COS-7 cells were cultured in Dulbecco's modified Eagle's medium (DMEM) with 5% fetal bovine serum (FBS), and were typically 80-100% confluent prior to experimentation. HepG2, SK-N-SH, and EMEG32^−/− cells were cultured in Dulbecco's modified Eagle's medium (DMEM) with 5% fetal bovine serum (FBS), CHO cells in DMEMF-12 with 5% FBS and PC12 cells in DMEM with 5% FBS and 5% horse serum. Prior to experimentation, PC12 cells were plated at a density of 3-4×10^5 cells10 cm plate, which had been pre-treated with 5 μgcm^2 rat tail collagen (BD Biosciences). Cells were differentiated in DMEM containing 1% horse serum, in the presence of 2.5S mouse nerve growth factor (Chemicon) at a final concentration of 25 ng mL^−1, for 4-5 days prior to treatment. Other cell lines were 80-100% confluent prior to treatment. Following treatment with (Ac-)5SGlcNAc, using various conditions, cells were washed gently with PBS, lysed in SDS loading buffer and boiled for 10 minutes. Mouse hybridoma cells (obtained from the Developmental Studies Hybridoma Bank; antibody E7 for (:1-tubulin) were cultured in RPMI40 with 10% FBS. Prior to treatment with Ac-5SGlcNAc, hybridoma cells were cultured for 2 days in RPMI40 with 5% FBS, and during treatment in RPMI40 with no serum. Cells were collected, centrifuged (800 x g, 5 min) and the supernatant removed. Cells were washed with PBS, centrifuged, the pellet resuspended in SDS loading buffer and boiled. The supernatant after centrifugation, which contained the IgG antibody produced by the cells, was used for immunoprecipitation (see below for details).
Westernlectin blots: Samples were run on 10% SDS polyacrylamide gels and transferred onto nitrocellulose membranes (Biorad). Membranes were blocked for 1 h in PBS containing 0.1% Tween-20 (PBS-T) containing 1% (unless otherwise stated) bovine serum albumin (BSA), and probed with the appropriate primary antibody or lectin in 1% BSA in PBS-T overnight at 4° C. Blots were washed for 1 hr with PBS-T, and blocked for a further 30 min with 1% BSA in PBS-T at room temperature. They were then probed with the appropriate horseradish peroxidise (HRP)-conjugated secondary antibodyprobe in 1% BSA in PBS-T at room temperature for 1 h, followed by washing in PBS-T for 1 h. Blots were developed with SuperSignal West Pico Chemiluminescent Substrate (Pierce) and exposed to CL-XPosure film (Pierce). Densitometry was performed using ImageQuant 5.2 (Molecular Dynamics), and fits to the data were made using GRAFIT^41.
Antibodieslectins: O-GlcNAc levels were assessed primarily using CTD110.6 (Covance), but RL2 (Abcam) and HGAC85 (Abcam) were also tested. Actin was probed using JLA20 (Developmental Studies Hybridoma Bank). OGA levels were assessed using a polyclonal anti-OGA antibody which was a kind gift from Dr. Gerald Hart and OGT levels using H-300 (Santa Cruz Biotechnology). nup62 was probed using mAb 414 (Covance). Secondary antibodies employed (HRP-conjugated goat anti-mouse IgM, goat anti-mouse IgG, goat anti-chicken IgY and goat anti-rabbit IgG) were obtained from Santa Cruz Biotechnology. Biotinylated-ConA, PHA-L, SNA and MAA were purchased from EY Laboratories, and biotinylated-GNA from Vector Laboratories. HRP-conjugated streptavidin (Pierce) was used as a probe for the biotinylated lectins.
Analogues (9, 10, 17-41) were tested in COS-7 cells, dosed at a final concentration of 50 μM in DMSO for 24 h. Following treatment, cells were washed with PBS, harvested into SDS-PAGE loading buffer and analyzed by western blot using standard procedures; blots were probed with the anti-O-GlcNAc antibody (CTD 110.6).

[3] = test system: incorporation of azido sugar onto proteins in COS-7 cells; assay: Metabolic feeding and Staudinger ligation with biotin phosphine, streptavidin-HRP blot; format: cell-based, African green monkey; conditions: 50 μM, 24 h
Protocol: (A) Structures of the molecules used or generated during the chemoselective ligation study (X═O or S as indicated, R═H or Ac as indicated). (B) Western blots of COS-7 cell lysates administered specified agents at 50 μM for 24 h; vehicle only (C), Ac-GlcNAz or Ac-5SGlcNAz (41). Cells were harvested and then underwent the Staudinger ligation with biotin phosphine. Blots are probed with (from top to bottom) streptavidin-HRP, anti O-GlcNAc (CTD110.6) antibody and anti-actin antibody. (C) Western blot of immunoprecipitated nup62 from cell lysates following vehicle (C), 50 μM Ac-GlcNAz or Ac-5SGlcNAz (41) treatment for 24 h. Following immunoprecipitation, nup62 was incubated with buffer (−) or with BtGH84 (+) for 2 h to remove O-GlcNAc, and then underwent the Staudinger ligation with biotin phosphine. Blots are probed with streptavidin-HRP. […]
To probe the possibility that 5SGlcNAc is being incorporated onto proteins, we used a metabolic feeding and chemoselective ligation strategy using 2-azidoacetamido-2-deoxy-D-glucopyranose (GlcNAz), which can be assimilated by the HBP to form uridine diphospho-N-azidoacetylglucosamine (UDP-GlcNAz) and then be installed onto proteins as O-GlcNAz^9. […] Accordingly, we evaluated whether 2-azidoacetamido-2-deoxy-5-thio-D-glucopyranose (5SGlcNAz) is incorporated onto proteins to determine whether 5SGlcNAc might be transferred onto proteins in cells. […]

[4] = test system: EMEG32 heterozygous mouse embryonic fibroblast cells; assay: Cell proliferation growth curves over 5 days and western blot, EMEG32 heterozygous fibroblasts; format: cell-based; conditions: EMEG32 heterozygotes, 50 μM, 5 days
Protocol: (A) Cell proliferation curves over the course of 5 days for CHO cells following no (circles), 50 μM Ac-GlcNAc (squares) or 50 μM Ac-5SGlcNAc (triangles) treatment. The error bars indicate the deviation from the mean for triplicate measurements. […] Upper panel, probed with anti-O-GlcNAc antibody (CTD110.6); lower panel, probed with anti-actin antibody. (B) Cell proliferation curves over the course of 5 days for EMEG heterozygous mouse embryonic fibroblast cells following no (circles), 50 μM Ac-GlcNAc (squares) or 50 μM Ac-5SGlcNAc (triangles) treatment. The error bars indicate the deviation from the mean for triplicate measurements. […] Upper panel, probed with anti-O-GlcNAc antibody (CTD110.6); lower panel, probed with anti-actin antibody. (C) Western blots of CHO cell lysates following no (C) or Ac-5SGlcNAc administration at 50 μM for 4 days. Probed with (from top to bottom) anti-Spl antibody, anti O-GlcNAc (CTD110.6) antibody and anti-actin antibody. Full blot of the anti-Sp 1 is shown in panel (d). (D) Western blots of CHO cell lysates following no (C) or Ac-5SGlcNAc administration at 50 μM for 4 days. The full blot probed with anti-Spl antibody is shown. (E) Western blots of COS-7 cell lysates following no (C) or 50 μM Ac-5SGlcNAc treatment for 24 h. Following treatment, the media was replaced with no inhibitor, and cells were harvested at the time points indicated (between 0 and 24 h). Upper panel, probed with anti-O-GlcNAc antibody (CTD110.6); lower panel, probed with anti-actin antibody.
Cellular responses to Ac-5SGlcNAc (9) treatment and consequent decreases in O-GlcNAc levels were evaluated. […] We quantitatively evaluated cell proliferation and established growth curves over the course of 5 days in both CHO and EMEG32 heterozygous mouse embryonic fibroblast cells treated with 50 μM Ac-5SGlcNAc (9), 50 μM Ac-GlcNAc (G), or vehicle (FIGS. 5A-B).

| Compound | O-GlcNAc levels in tissues [1] | effect on O-GlcNAc levels at single dose [2] | extent of decrease of O-GlcNAc levels relative to parent compound 9 [2] | streptavidin signal after Staudinger ligation (accumulation of azido sugar on proteins) [3] | growth rate [4] |
| --- | --- | --- | --- | --- | --- |
| CCCCCC(=O)NC1C(O)SC(CO)C(O)C1O [Compound 28, N-Hexonoyl-a-D-5-thio-glucosamine] | effective at decreasing O-GlcNAc levels during the 16 hour dosing period in the liver, lung, heart, kidney, spleen, pancreas, fat and muscle | decreased O-GlcNAc levels in cells | comparable extent to the parent compound |  |  |
| CC(=O)OC[C@H]1O[C@H](OC(C)=O)[C@H](NC(=O)CN=[N+]=[N-])[C@@H](OC(C)=O)[C@@H]1OC(C)=O [Ac-GlcNAz, 1,3,4,6-tetra-O-acetyl-2-azidoacetamido-2-deoxy-ot-D-glucopyranose, reference compound] |  | only 5SGlcNAz decreased O-GlcNAc levels |  | Only proteins from cells treated with Ac-GlcNAz revealed any signal |  |
| CC(=O)N[C@H]1[C@H](OC(C)=O)O[C@H](COC(C)=O)[C@@H](OC(C)=O)[C@@H]1OC(C)=O [Ac-GlcNAc, reference compound] |  |  |  |  | indistinguishable but were both lower than vehicle treated cells |
| 2-azidoacetamido-2-deoxy-5-thio-D-glucopyranose [Compound 5SGlcNAz] |  |  |  | does not accumulate on proteins to any measurable level |  |
